Reference: US10034879B2, “Substituted benzaldehyde compounds and methods for their use in increasing tissue oxygenation” (Global Blood Therapeutics, Inc., priority 2011, dated 2018)
Several values for one entry are separate records, joined by “and”; a condition that tells them apart may be missing. Equal entries are not always repeated. Where two headings read alike, the source gives them in different places.

Tests used:
HbS/A = target: T1, HbS/A (Homo sapiens, UniProt P68871+P69905, E7V); test: Relaxed-to-tense transition assay (R/T assay); type: biochemical; settings: compound at 30 μm; 3 μM HbS/A
T1 construct: A mixture of HbS/A was purified from blood; from tissue; host or cells: blood of homozygous sickle cell patients
Procedure: A relaxed-to-tense transition assay (“R/T assay”) was used to determine the ability of substituted benzaldehyde compounds to maintain the high-oxygen affinity relaxed (R) state of hemoglobin under deoxygenated conditions. This ability can be expressed as a “delta R” value (i.e., the change in the time-period of the R state after hemoglobin is treated with a compound, as compared to the period without treatment with the compound). Delta R is the % R to remaining after the compounds treatment compared with no treatment (e.g. if R % without treatment is 8% while with treatment with a target compound is 48% R at 30 μM, then % R is 40% for that compound.
A mixture of HbS/A was purified from blood obtained from homozygous sickle cell patients though the Hemoglobinopathy Center at Children's Hospital Oakland Research Institute (CHORI) with Institutional Review Board approval. HbS/A (at a final concentration of 3 μM) was incubated for 1 hr at 37° C. in presence or absence of compounds in […] potassium phosphate buffer, pH=7.4 and 30 μM 2, 3 diphosphoglycerate (DPG) in 96 well plates in a final volume of 160 μl. Compounds were added at different concentrations (3 μM to 100 μM final concentrations). Plates were covered with a Mylar film. After incubation was completed the Mylar cover was removed and the plates were placed in a Spectrostar Nano plate reader previously heated at 37° C. Five minutes later, N2 (flow rate=20 L/min) was flowed through the spectrophotometer. Spectroscopic measurements (300 nm to 700 nm) were taken every 5 min for 2 hours. Data analysis was performed by using linear regression from the data retrieved for all wavelengths.
Table 4 below lists the delta R values where + indicates a delta R of between 0 and 30, ++ indicates a delta R of between 30 and 50, and +++ indicates a delta R of 50 or greater. Unless noted otherwise, the compounds in Table 2 were tested at 9 μM.

HbS = target: T2, HbS (Homo sapiens, UniProt P68871+P69905, E7V); test: Whole blood assay, oxygen equilibrium curves of whole blood from sickle cell patients; type: cell-based; settings: hematocrit 20%, compound at 1000 μM
T2 construct: Oxygen Equilibrium Curves (OEC) of whole blood before and after treatment; endogenous in cells; host or cells: whole blood (red blood cells) of homozygous sickle cell patients
Procedure: Oxygen Equilibrium Curves (OEC) of whole blood before and after treatment with different concentrations of substituted benzaldehyde compounds were performed as follows using a HEMOX analyzer (TCS Scientific, New Hope, Pa.). Blood samples from homozygous sickle cell patients were obtained though the Hemoglobinopathy Center at Children's Hospital Oakland Research Institute (CHORI) with Institutional Review Board approval. The hematocrit was adjusted to 20% using autologous plasma and the blood samples were incubated for 1 hour at 37° C. in absence or presence of compounds. 100 μl of these samples were added to 5 mL of Hemox buffer (30 mM TES, 130 mM NaCl, 5 mM KCl, pH=7.4) at 37° C. and then transferred to the Hemox sample chamber. The samples were saturated with oxygen by flushing with compressed air for 10 minutes. The samples were then flushed with pure nitrogen and the respective absorbances of oxy- and deoxy-Hb are recorded as a function of the solution pO2. The oxygen equilibrium data were then fitted to the Hill Model to obtain values for p50. The deoxygenation curves for both whole blood alone (control) and whole blood in the presence of the compound were collected with the TCS software.
Table 5 below lists the delta p50% values where + indicates a delta p50% of between 0 and 29, ++ indicates a delta p50% of between 30 and 50, and +++ indicates a delta p50% of 50 or greater. The compounds in Table 2 were tested at 1000 μM.

[1] = Pharmacokinetic I.V. study in rat; type: in vivo, Sprague Dawley rats; settings: 7.8 mpk IV; for Vd: read-out: Vss; for half-life: read-out: t½ beta
Procedure: Sprague Dawley rats were treated with 7.8 mg/Kg of Compound 43 dissolved in 10% DMA:[…]:16% ca vitron. At specified time points 10 uL of whole blood/plasma was removed from rats and treated with 490 ul pH 3 buffer+500 uL ACN/IS, then shaken for 1 hour, centrifuged for 10 minutes at […] at 4 C. The supernatant was transferred to a filter plate and centrifuged at 2000 rpm for 1 minute at 4 C. The samples were then analyzed by LC-MS/MS monitoring parent aldehyde.

[2] = HCl salt, 0 min, animals A, B, C
[3] = HCl salt, 5 min, animals A, B, C, 7.8 mg/kg
[4] = HCl salt, 15 min, animals A, B, C, 7.8 mg/kg
[5] = HCl salt, 30 min, animals A, B, C, 7.8 mg/kg
[6] = HCl salt, 60 min, animals A, B, C, 7.8 mg/kg
[7] = HCl salt, 120 min, animals A, B, C, 7.8 mg/kg
[8] = HCl salt, 240 min, animals A, B, C, 7.8 mg/kg
[9] = HCl salt, 1440 min, animals A, B, C, 7.8 mg/kg
[10] = Sprague-Dawley, 7.8 mg/kg, Plasma
[11] = Sprague-Dawley, whole blood, 7.8 mg/kg, Blood

CC(C)n1nccc1-c1ncccc1COc1cccc(O)c1C=O [Compound 43, 2-hydroxy-6-((2-(1-isopropyl-1H-pyrazol-5-yl)pyridin-3-yl)methoxy)benzaldehyde]
delta R (%) (HbS/A): +++ (30 μm) (+++ indicates a delta R of 50 or greater) | delta p50% (HbS): +++ (+++ indicates a delta p50% of 50 or greater) | AUClast ([1]; Blood): 215846.3 µmol·min/L | blood conc [1, 2]: BLLOQ | plasma conc [1, 2]: BLLOQ | blood conc [1, 3]: 246 µM and 281 µM | plasma conc [1, 3]: 8.68 µM and 7.44 µM | blood conc [1, 4]: 341 µM and 285 µM | plasma conc [1, 4]: 8.42 µM and 7.16 µM | blood conc [1, 5]: 333 µM and 292 µM | plasma conc [1, 5]: 7.1 µM | blood conc [1, 6]: 203 µM and 285 µM | plasma conc [1, 6]: 7.52 µM and 7.22 µM | blood conc [1, 7]: 274 µM and 280 µM | plasma conc [1, 7]: 6.02 µM and 5.22 µM | blood conc [1, 8]: 225 µM and 259 µM | plasma conc [1, 8]: 5.24 µM and 5.88 µM | plasma conc ([1]; HCl salt, 480 min, animals A, B, C, 7.8 mg/kg): 2.66 µM and 3.15 µM | blood conc [1, 9]: 85 µM and 70.8 µM | plasma conc [1, 9]: 1.38 µM and 1.51 µM | AUClast ([1]; Plasma): 4114.8 µmol·min/L | clearance [1, 10]: 4.45 mL/min/kg | Vd [1, 10]: 4.11 L/kg | half-life [1, 10]: 10.3 h | concentration at 5 min ([1]; Sprague-Dawley, plasma, iv, 7.8 mg/kg, HCl salt, 5 min, animals A, B, C, read-out: plasma conc): 7.56 µM | concentration at 15 min ([1]; Sprague-Dawley, plasma, iv, 7.8 mg/kg, HCl salt, 15 min, animals A, B, C, read-out: plasma conc): 8.38 µM | concentration at 30 min ([1]; Sprague-Dawley, plasma, iv, 7.8 mg/kg, HCl salt, 30 min, animals A, B, C, read-out: plasma conc): 8.66 µM | concentration at 60 min ([1]; Sprague-Dawley, plasma, iv, 7.8 mg/kg, HCl salt, 60 min, animals A, B, C, read-out: plasma conc): 6.12 µM | concentration at 120 min ([1]; Sprague-Dawley, plasma, iv, 7.8 mg/kg, HCl salt, 120 min, animals A, B, C, read-out: plasma conc): 3.92 µM | concentration at 240 min ([1]; Sprague-Dawley, plasma, iv, 7.8 mg/kg, HCl salt, 240 min, animals A, B, C, read-out: plasma conc): 3.72 µM | concentration at 480 min ([1]; Sprague-Dawley, plasma, iv, 7.8 mg/kg, HCl salt, 480 min, animals A, B, C, read-out: plasma conc): 2.06 µM | concentration at 1440 min ([1]; Sprague-Dawley, plasma, iv, 7.8 mg/kg, HCl salt, 1440 min, animals A, B, C, read-out: plasma conc): 1.07 µM | clearance [1, 11]: 0.08 mL/min/kg | Vd [1, 11]: 0.09 L/kg | half-life [1, 11]: 12.5 h | concentration at 5 min ([1]; Sprague-Dawley, whole blood, iv, 7.8 mg/kg, HCl salt, 5 min, animals A, B, C, read-out: blood conc): 259 µM | concentration at 15 min ([1]; Sprague-Dawley, whole blood, iv, 7.8 mg/kg, HCl salt, 15 min, animals A, B, C, read-out: blood conc): 287 µM | concentration at 30 min ([1]; Sprague-Dawley, whole blood, iv, 7.8 mg/kg, HCl salt, 30 min, animals A, B, C, read-out: blood conc): 283 µM | concentration at 60 min ([1]; Sprague-Dawley, whole blood, iv, 7.8 mg/kg, HCl salt, 60 min, animals A, B, C, read-out: blood conc): 256 µM | concentration at 120 min ([1]; Sprague-Dawley, whole blood, iv, 7.8 mg/kg, HCl salt, 120 min, animals A, B, C, read-out: blood conc): 263 µM | concentration at 240 min ([1]; Sprague-Dawley, whole blood, iv, 7.8 mg/kg, HCl salt, 240 min, animals A, B, C, read-out: blood conc): 248 µM | concentration at 1440 min ([1]; Sprague-Dawley, whole blood, iv, 7.8 mg/kg, HCl salt, 1440 min, animals A, B, C, read-out: blood conc): 81.1 µM
